What was measured:
HeLa cells [1] = details: non-patent reference 1; cited from earlier work
HeLa cells [2] = experiment: Evaluation of phototoxicity: WST-8 cell viability after light exposure (16 J/cm^2, halogen lamp, 500 nm cut-off filter); type: cell-based; details: light 16 J/cm^2
Description: HeLa cells were plated in a 96-well plate to give a concentration of 5×10^3 cells/well (medium volume: 100 μL), and the plate was incubated at 37° C. in 5% CO2 atmosphere for 24 hours. To each well was added 100 μL of a drug solution containing 2% dimethylsulfoxide to give a certain concentration. The plate was further incubated at 37° C. in 5% CO2 atmosphere for 24 hours. Then, the medium was discarded and the cells were washed twice with phosphate buffered saline (100 μL). To each well was added 100 μL of Dulbecco's modified Eagle's medium (DMEM) containing 10% fetal calf serum (FCS). The cells were then exposed to light (16 J/cm^2) from a 100 W halogen lamp equipped with a 500 nm cut-off filter and a water jacket. After that, the plate was further incubated at 37° C. in 5% CO2 for 24 hours. And the plate was subjected to WST-8 assay and cell viability rates were calculated as relative values to those obtained in the absence of drugs. The average values of the result from 6 replicate experiments for each drug were calculated.
The light dose was adjusted by controlling the irradiation time by using a power meter.
WST assay is one of the method to determine the activity of dehydrogenase of cells, in which tetrazolium salt (WST-8) is reduced dependently on the number of viable cells. The amount of the reduction was determined by absorption spectroscopy to provide the relative amount of viable cells.
Phototoxicity were determined for the chlorin derivatives or porphyrin derivatives which were prepared in the above Example and Comparative Example and obtained as production intermediates, and the compound from Reference Example at a drug concentration of 0.5 μM according to the above evaluation method.
For the compounds No. 6 to 9 and 14 to 16 shown in Table 1, phototoxicity was determined at a drug concentration of 0.09 μM according to the above evaluation method.

some cells = details: non patent reference 2; cited from earlier work
[3] = drug concentration 0.5 μM, FIG. 3
[4] = drug concentration 0.09 μM, FIG. 4

| Molecule | phototoxicity compared with commercially available TPPS (No. 14) (HeLa cells [2]; [3]) | effect of sugar linkage on phototoxicity (HeLa cells [2]; [4]) | phototoxicity compared with non-glycoconjugated compound (No. 1, 2, 3, 4 respectively) (HeLa cells [2]; [3]) | phototoxicity of acetyl-protected compound compared with No. 6, 7, 8, 9 respectively (HeLa cells [2]; [3]) | further results |
| --- | --- | --- | --- | --- | --- |
| 5,10,15,20-tetrakis[3-(β-D-glucopyranosyloxy)phenyl]chlorin [compound 15] | higher phototoxicity | – | – | – | cytotoxicity by irradiation with light (HeLa cells [1]): show cytotoxicity by irradiation with light; cytotoxicity in the dark (HeLa cells [1]): no cytotoxicity is found in the dark |
| OCC1OC(Sc2c(F)c(F)c(-c3c4nc(c(-c5c(F)c(F)c(SC6OC(CO)C(O)C(O)C6O)c(F)c5F)c5ccc([n-]5)c(-c5c(F)c(F)c(SC6OC(CO)C(O)C(O)C6O)c(F)c5F)c5nc(c(-c6c(F)c(F)c(SC7OC(CO)C(O)C(O)C7O)c(F)c6F)c6ccc3[n-]6)C=C5)C=C4)c(F)c2F)C(O)C(O)C1O.[Pd+2] [compound 7, {5,10,15,20-tetrakis[4-(β-D-glucopyranosylthio)-2,3,5,6-tetrafluorophenyl]porphyrinato}palladium (II), reference compound] | higher phototoxicity | did not result in any improvement effect of phototoxicity | higher phototoxicity | – | – |
| OC[C@H]1O[C@@H](Sc2c(F)c(F)c(-c3c4nc(c(-c5c(F)c(F)c(S[C@@H]6O[C@H](CO)[C@@H](O)[C@H](O)[C@H]6O)c(F)c5F)c5ccc([nH]5)c(-c5c(F)c(F)c(S[C@@H]6O[C@H](CO)[C@@H](O)[C@H](O)[C@H]6O)c(F)c5F)c5nc(c(-c6c(F)c(F)c(S[C@@H]7O[C@H](CO)[C@@H](O)[C@H](O)[C@H]7O)c(F)c6F)c6ccc3[nH]6)C=C5)C=C4)c(F)c2F)[C@H](O)[C@@H](O)[C@@H]1O [compound 6, 5,10,15,20-tetrakis[4-(β-D-glucopyranosylthio)-2,3,5,6-tetrafluorophenyl]porphyrin, reference compound] | higher phototoxicity | did not result in any improvement effect of phototoxicity | higher phototoxicity | – | – |
| CC(=O)OC[C@H]1O[C@@H](Sc2c(F)c(F)c(-c3c4nc(c(-c5c(F)c(F)c(S[C@@H]6O[C@H](COC(C)=O)[C@@H](OC(C)=O)[C@H](OC(C)=O)[C@H]6OC(C)=O)c(F)c5F)c5ccc([nH]5)c(-c5c(F)c(F)c(S[C@@H]6O[C@H](COC(C)=O)[C@@H](OC(C)=O)[C@H](OC(C)=O)[C@H]6OC(C)=O)c(F)c5F)c5nc(c(-c6c(F)c(F)c(S[C@@H]7O[C@H](COC(C)=O)[C@@H](OC(C)=O)[C@H](OC(C)=O)[C@H]7OC(C)=O)c(F)c6F)c6ccc3[nH]6)C=C5)C=C4)c(F)c2F)[C@H](OC(C)=O)[C@@H](OC(C)=O)[C@@H]1OC(C)=O [compound 10, 5,10,15,20-tetrakis(4-(2,3,4,6-tetra-O-acetyl-β-D-glucopyranosylthio)-2,3,5,6-tetrafluorophenyl)porphyrin, reference compound] | – | – | – | phototoxicity was disappeared | – |
| OC[C@H]1OC(Sc2c(F)c(F)c(-c3c4nc(c(-c5c(F)c(F)c(SC6O[C@H](CO)[C@@H](O)[C@H](O)[C@H]6O)c(F)c5F)c5ccc([nH]5)c(-c5c(F)c(F)c(SC6O[C@H](CO)[C@@H](O)[C@H](O)[C@H]6O)c(F)c5F)c5nc(c(-c6c(F)c(F)c(SC7O[C@H](CO)[C@@H](O)[C@H](O)[C@H]7O)c(F)c6F)c6ccc3[nH]6)C=C5)C=C4)c(F)c2F)[C@H](O)[C@@H](O)[C@@H]1O (some centres unmarked) [5,10,15,20-tetrakis(4,1′-thio-glucosyl-2,3,5,6-tetrafluorophenyl)porphyrin] | – | – | – | – | cell death with irradiation of light (some cells): cell death can be observed with irradiation of light |
| 5,10,15,20-tetrakis[4-(2,3,4,6-tetra-O-acetyl-β-D-glucopyranosylthio)-2,3,5,6-tetrafluorophenyl]-2,3-[methano(N-methyl)iminomethano]chlorin [compound 12] | – | – | – | phototoxicity was disappeared | – |
| CN1C[C@@H]2c3nc(c(-c4c(F)c(F)c(S[C@@H]5O[C@H](CO)[C@@H](O)[C@H](O)[C@H]5O)c(F)c4F)c4ccc([nH]4)c(-c4c(F)c(F)c(S[C@@H]5O[C@H](CO)[C@@H](O)[C@H](O)[C@H]5O)c(F)c4F)c4nc(c(-c5c(F)c(F)c(S[C@@H]6O[C@H](CO)[C@@H](O)[C@H](O)[C@H]6O)c(F)c5F)c5ccc([nH]5)c3-c3c(F)c(F)c(S[C@@H]5O[C@H](CO)[C@@H](O)[C@H](O)[C@H]5O)c(F)c3F)C=C4)[C@@H]2C1 [compound 8, 5,10,15,20-tetrakis[4-(β-D-glucopyranosylthio)-2,3,5,6-tetrafluorophenyl]-2,3-[methano(N-methyl)iminomethano]chlorin] | higher phototoxicity | distinguished improvement of phototoxicity | higher phototoxicity | – | phototoxicity compared with O-glycosylated chlorin derivative No. 15 (HeLa cells [2]; [4]): higher phototoxicity; phototoxicity compared with galactose-linked derivative No. 16 (HeLa cells [2]; drug concentration 0.09 μM, FIG. 5): higher phototoxicity; phototoxicity compared with No. 6, 7 and No. 15 (HeLa cells [2]; drug concentration 0.5 μM): no difference in phototoxicity; phototoxicity compared with O-glycosylated chlorin derivative No. 15 (HeLa cells [2]; drug concentration 0.5 μM): not any differences in phototoxicity |
| CN1CC2c3nc(c(-c4c(F)c(F)c(SC5OC(CO)C(O)C(O)C5O)c(F)c4F)c4ccc([n-]4)c(-c4c(F)c(F)c(SC5OC(CO)C(O)C(O)C5O)c(F)c4F)c4nc(c(-c5c(F)c(F)c(SC6OC(CO)C(O)C(O)C6O)c(F)c5F)c5ccc([n-]5)c3-c3c(F)c(F)c(SC5OC(CO)C(O)C(O)C5O)c(F)c3F)C=C4)C2C1.[Pd+2] [compound 9, {5,10,15,20-tetrakis[4-(β-D-glucopyranosylthio)-2,3,5,6-tetrafluorophenyl]-2,3-[methano(N-methyl)iminomethano]chlorinato}palladium (II)] | higher phototoxicity | distinguished improvement of phototoxicity | higher phototoxicity | – | phototoxicity compared with O-glycosylated chlorin derivative No. 15 (HeLa cells [2]; [4]): higher phototoxicity; phototoxicity compared with No. 6, 7 and No. 15 (HeLa cells [2]; drug concentration 0.5 μM): no difference in phototoxicity; phototoxicity compared with O-glycosylated chlorin derivative No. 15 (HeLa cells [2]; drug concentration 0.5 μM): not any differences in phototoxicity |
| CN1CC2c3nc(c(-c4c(F)c(F)c(F)c(F)c4F)c4ccc([n-]4)c(-c4c(F)c(F)c(F)c(F)c4F)c4nc(c(-c5c(F)c(F)c(F)c(F)c5F)c5ccc([n-]5)c3-c3c(F)c(F)c(F)c(F)c3F)C=C4)C2C1.[Pd+2] (centres unmarked) [compound 4, {5,10,15,20-tetrakis(pentafluorophenyl)-2,3-[methano(N-methyl)iminomethano]chlorinato}palladium] | – | – | – | – | phototoxicity of metal complex compared with compound No. 3 (HeLa cells [2]; [3]): phototoxicity increased |
| CC(=O)OCC1OC(Sc2c(F)c(F)c(-c3c4nc(c(-c5c(F)c(F)c(SC6OC(COC(C)=O)C(OC(C)=O)C(OC(C)=O)C6OC(C)=O)c(F)c5F)c5ccc([n-]5)c(-c5c(F)c(F)c(SC6OC(COC(C)=O)C(OC(C)=O)C(OC(C)=O)C6OC(C)=O)c(F)c5F)c5nc(c(-c6c(F)c(F)c(SC7OC(COC(C)=O)C(OC(C)=O)C(OC(C)=O)C7OC(C)=O)c(F)c6F)c6ccc3[n-]6)C=C5)C=C4)c(F)c2F)C(OC(C)=O)C(OC(C)=O)C1OC(C)=O.[Pd+2] [compound 11, {5,10,15,20-tetrakis[4-(2,3,4,6-tetra-O-acetyl-β-D-glucopyranosylthio)-2,3,5,6-tetrafluorophenyl]porphyrinato}palladium (II), reference compound] | – | – | – | phototoxicity was disappeared | – |
| CN1CC2c3nc(c(-c4c(F)c(F)c(S[C@@H]5O[C@H](CO)[C@H](O)[C@H](O)[C@H]5O)c(F)c4F)c4ccc([nH]4)c(-c4c(F)c(F)c(S[C@@H]5O[C@H](CO)[C@H](O)[C@H](O)[C@H]5O)c(F)c4F)c4nc(c(-c5c(F)c(F)c(S[C@@H]6O[C@H](CO)[C@H](O)[C@H](O)[C@H]6O)c(F)c5F)c5ccc([nH]5)c3-c3c(F)c(F)c(S[C@@H]5O[C@H](CO)[C@H](O)[C@H](O)[C@H]5O)c(F)c3F)C=C4)C2C1 (stereo partly drawn) [compound 16, 5,10,15,20-tetrakis[4-(β-D-galactopyranosylthio)-2,3,5,6-tetrafluorophenyl]-2,3-[methano(N-methyl)iminomethano]chlorin] | higher phototoxicity | – | – | – | – |
| CC(=O)OCC1OC(Sc2c(F)c(F)c(-c3c4nc(c(-c5c(F)c(F)c(SC6OC(COC(C)=O)C(OC(C)=O)C(OC(C)=O)C6OC(C)=O)c(F)c5F)c5ccc([n-]5)c(-c5c(F)c(F)c(SC6OC(COC(C)=O)C(OC(C)=O)C(OC(C)=O)C6OC(C)=O)c(F)c5F)c5nc(c(-c6c(F)c(F)c(SC7OC(COC(C)=O)C(OC(C)=O)C(OC(C)=O)C7OC(C)=O)c(F)c6F)c6ccc3[n-]6)C3CN(C)CC53)C=C4)c(F)c2F)C(OC(C)=O)C(OC(C)=O)C1OC(C)=O.[Pd+2] [compound 13, {5,10,15,20-tetrakis[4-(2,3,4,6-tetra-O-acetyl-β-D-glucopyranosylthio)-2,3,5,6-tetrafluorophenyl]-2,3-[methano(N-methyl)iminomethano]chlorinato}palladium (II)] | – | – | – | phototoxicity was disappeared | – |
